Laboratory results reported in patent US20120009183A1, “METHOD FOR TREATMENT OF PANCREATITIS” (Ore Pharmaceuticals Inc., priority 2007, published 2012).

Key:
[1] = tested on: acute pancreatitis induced by cerulein; details: Tsang et al. (2004); cited from earlier work
[2] = tested on: NF-κB dependent transcription; assay: TNFα-induced activation of NF-κB in recombinant HeLa reporter cells (luciferase); format: cell-based; details: TNFα 20 ng/ml, 6 hours, HeLa NF-κB-luc
Text: To test the ACE2 inhibitor GL1001 for anti-inflammatory activity relevant to gastrointestinal inflammatory disease, more particularly pancreatitis, effects of the compound on activation of NF-κB dependent transcription by TNFα were examined in recombinant reporter cells containing a construct with a luciferase reporter gene under control of NF-κB dependent regulatory sequences, thereby allowing detection of NF-κB dependent transcription by measuring reporter enzyme using a conventional luciferase activity assay based on detection of generated light.
In particular, HeLa cells (American Type Culture Collection) were grown in Dulbecco's modified Eagles medium (DMEM) supplemented with 10% fetal calf serum and transiently transfected with an NF-κB-luc construct (Stratagene, Inc.), as follows (with all incubation steps at 37 C unless otherwise indicated). Cells were seeded and grown to about 70% confluency in a 10 cm cell culture dish. Plasmid DNA (10 μg) was added to 1 ml serum free DMEM media in a tube. Fugene 6 transfection reagent (30 μl) (Roche) was then pipetted slowly into the tube and the contents were gently mixed by inversion. The mixture was incubated at room temperature for 15 minutes and then added dropwise to cells in one 10 cm dish. […] Bioluminescence was then measured using a Veritas luminometer (Turner BioSystems). […]

[3] = tested on: NF-κB dependent transcription; assay: In vivo basal NF-κB dependent transcription in NF-κB::Luc reporter mice, abdominal imaging; details: 300 mg/kg s.c., 4 hours post administration; p<0.01
Text: GL1001 was further tested for in vivo anti-inflammatory activity by examining its effects on basal levels of NF-κB dependent transcription in mice engineered in the germline with a construct containing an NF-κB enhancer linked to a luciferase gene (i.e., NF-κB::Luc mice), such that this NF-κB reporter construct is present in all cells of the mice.
More particularly, transgenic NF-κB::Luc mice were generated using three NF-κB response elements from the Igκ light chain promoter fused to a firefly luciferase gene as described by Carlsen et al. (2002) J. Immunol. 168:1441-1446. Pronuclear microinjection of purified construct DNA was used to generate transgenic founders in the C57BL/6 XCBA/J background. Founders were subsequently back crossed to the C57BL/6 albino background. […] Signal data were also quantitated and archived using the Living Image® software. Photons of light were quantitated using an oval region of interest (ROI) of varying sizes depending on the procedure, as described further below.
To test for in vivo effects of GL1001 on basal levels of NF-κB dependent transcription, male NF-κB::Luc mice were subjected to quantitative in vivo imaging of the abdominal area (using a fixed ROI of 2.76×3.7 cm) as described above, immediately before, and at 2, […]

[4] = tested on: activator protein-1 (AP-1); assay: Basal in vivo reporter luciferase expression in AP-1::Luc mice; details: data not shown
[5] = tested on: NF-κB dependent transcription; assay: LPS-induced NF-κB dependent transcription in extracted organs of NF-κB::Luc mice (luciferase assay); format: in vivo; details: 30 mg/kg GL1001 + 0.5 mg/kg LPS vs LPS alone; stomach
Text: For luciferase assays, organs were extracted and snap frozen in liquid nitrogen. All tissue samples were placed in lysis buffer with inhibitors (Passive Lysis Buffer (Promega) and Complete Mini Protease Inhibitor Cocktail (Roche, Indianapolis, Ind.)), and were homogenized using a tissue homogenizer (Handishear, Hand-held homogenizer, VirTis, Gardiner, N.Y.). Tissue homogenates were centrifuged and clarified lysates were used for luminometer assays and western blots. For the luminometer assays, Luciferase Assay Substrate (Luciferase Assay System, Promega) was prepared as indicated by the manufacturer and placed in disposable cuvettes. […] Background luminescence readings were obtained and the background readings were subtracted from the luminescent data. Protein concentrations were determined using the BCA Protein Assay Kit (Pierce, Rockford, Ill.) following the manufacturer's protocols and analyzed using a VERSAmax tuneable microplate reader and associated Softmax Pro version 3.1.2 software (Molecular Devices, Sunnyvale Calif.). The luminescence for each of the protein lysates was calculated as arbitrary units of light per microgram of protein. […]
GL1001 was further tested for in vivo anti-inflammatory activity by examining its effects on bacterial LPS induced NF-κB dependent transcription, in NF-κB::Luc mice. […] Luciferase signal was quantitated from several regions of interest. […]

[6] = tested on: spontaneous CP in male WBN/Kob rats; details: Kuno et al. (2003); cited from earlier work

SMILES: CCCCc1nc(Cl)c(CO)n1Cc1ccc(-c2ccccc2-c2nn[nH]n2)cc1 [losartan]
- severity of acute pancreatitis induced by cerulein [1]: markedly reduced

SMILES: CC(C)C[C@H](N[C@@H](Cc1cncn1Cc1cc(Cl)cc(Cl)c1)C(=O)O)C(=O)O [GL1001, (S,S)-2-[1-carboxy-2-[3-(3,5-dichlorobenzyl)-3H-imidazol-4-yl]-ethylamino]-4-methylpentanoic acid]
- inhibition of TNFα induced activation of NF-κB dependent transcription ([2]; at 8 nM): over 80%
- maximal inhibition of TNFα induced activation of NF-κB dependent transcription ([2]; at 0.2 μM): over 95%
- inhibition of basal in vivo NF-κB dependent transcription in abdominal ROI [3]: over 40%
- effect on basal in vivo reporter luciferase expression [4]: no significant effect
- reduction of LPS induced NF-κB-dependent transcription in stomachs [5]: about 37 fold

SMILES: NCCCC[C@H](N[C@@H](CCc1ccccc1)C(=O)O)C(=O)N1CCC[C@H]1C(=O)O [lisinopril]
- pancreatic fibrosis in animal model of CP [6]: attenuated
